Reference: publication PMC4113265 (Journal of Natural Products, 2014)

Experiments:
MIA PaCa-2 cells = assay: MTT antiproliferation/cytotoxicity assay; format: cell-based, human; conditions: MIA PaCa-2, MTT, concentration-response curves (Figure 2A)
[1] = cited from earlier work
[2] = freshly prepared rat serum; cited from earlier work

Substance | potency relative to 1 in MIA PaCa-2 cells (MIA PaCa-2 cells) | half-life (t1/2) in whole blood [1] [min] | half-life (t1/2) in serum [2] [min]
apicidin | significantly less active than 1 |  | 
chlamydocin |  | 0.68 to 3.6 | 8.7
trapoxin A | comparable potency to 1 |  | 
